The data set can be described thus: SNAP/E2As dry storage stability study. Particulars: SNAP doped in E2As polymer. The class given is physicochemical. As for the experimental part:
The stability of SNAP doped in the E2As polymer during dry storage was also evaluated. SNAP incorporated in E2As can potentially undergo thermal or photochemical decomposition during storage, thus limiting the available NO release capacity at the time of use. Therefore, 10 wt % SNAP/E2As films were stored with desiccant in the freezer in the dark, dry in the dark or in ambient light with desiccant at room temperature, and dry in the dark with desiccant at 37° C. and 50° C. These stability studies were conducted in a similar manner as the cumulative NO release experiments, where films were dissolved in DMAc to determine the amount of SNAP remaining in the polymer at various time points (as described herein). […] After 2 months, for example, the 10 wt % SNAP films stored in the freezer (−20° C.) in the dark maintain about 96% of the initial SNAP species, compared to 89% for films stored at room temperature and 82% for films stored at 37° C. (see FIG. 8). […]
SNAP/E2As films (consisting of 10 wt % SNAP) were placed under the following conditions in vials with desiccant: room temperature with ambient light, room temperature in dark, 37° C. in dark, and in the freezer (−20° C.) in dark. At various time points over a 4 month period, films were dissolved in DMAc, and the UV-Vis spectra was recorded to determine the % SNAP remaining in the film, as compared to the initial 10 wt % SNAP.

The structures appear in SMILES notation.

Consider `CC(=O)N[C@H](C(=O)O)C(C)(C)SN=O` (racemic) [SNAP, S-nitroso-N-acetylpenicillamine], for which the “Time for which SNAP is stable in the Elast-Eon E2As polymer” value is “at least 4 months”.

These data come from US20150366831A1, “THROMBORESISTANT/BACTERICIDAL S-NITROSO-N-[…] (SNAP)-DOPED NITRIC OXIDE RELEASE POLYMERS WITH ENHANCED STABILITY” (THE REGENTS OF THE UNIVERSITY OF MICHIGNA, priority 2013, published 2015).
